We go through 19 compounds from patent publication US20230000842A1, “METHODS OF TREATING CARTILAGE DISORDERS THROUGH INHIBITION OF CLK AND DYRK” (SAMUMED, LLC, priority 2019, published 2023).

One test concerns the target CLK2 kinase (Homo sapiens, UniProt P49760). Nature of the test: CLK2 kinase activity assay (Z-lyte FRET).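 Note: FRET read-out as coumarin to fluorescein emission ratio, unphosphorylated peptide as 0% and phosphorylated peptide as 100% controls, duplicate reactions, non-linear regression fit of dose-response curves.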 It is filed as biochemical. The conditions noted are these: Z-lyte Ser/Thr 6 peptide, 60 μM ATP, 1 h at room temperature.
Test [1] relates to primary human mesenchymal stem cells (hMSCs). As to the kind of experiment: Chondrogenesis screening using primary human mesenchymal stem cells. In kind it is cell-based. To be noted: Homo sapiens, Mesenchymal stem cells, hMSC chondrogenesis; for EC50: concentration required to induce 50% levels of chondrogenesis with TGF-β3 as positive control, read-out: Conc (nM) of 50% TGF-β3 activity; for Emax: maximum activity relative to TGF-β3 (10 ng/mL) positive control, read-out: Max. Activity as % TGF-β3 activity. The source says: Representative compounds were screened using primary human mesenchymal stem cells (hMSCs) to determine their ability to induce chondrogenesis (process by which cartilage is developed).
Human Mesenchymal Stem Cell Culture: Primary human mesenchymal stem cells (hMSCs) were purchased from Lonza (Walkersville, Md.) and expanded in Mesenchymal Stem Cell Growth Media (Lonza). Cells between passage 3 and 6 were used for the experiments.
Area of nodules in each well was normalized to the average of 3 DMSO treated wells on the same plate using Excel (Microsoft Inc.). The normalized averages (fold change over DMSO) of 2 or 3 replicate wells for each compound concentration were calculated. Due to solubility limitations of some of the compounds, curve fitting was incomplete leading to inaccurate EC50 determinations.
Using TGF-β3 as a positive control, the concentration of representative compounds required to induce 50% levels of chondrogenesis is reported. In addition, the maximum activity of each compound and the respective dose that each compound reached maximum chondrogenesis activity is reported.

Test [2] concerns Wnt pathway activity (SW480 colon carcinoma cells stably expressing the Sp5-Luc reporter). Nature of the test: Wnt pathway activity screening assay (Sp5-Luc reporter gene assay). To be noted: Homo sapiens, SW480, Table 4; SW480 cells stably expressing Sp5-Luc reporter, 10-point dose-response from 10 μM, 36 to 48 hours.

CLK2 kinase, sequence (P49760 whole entry): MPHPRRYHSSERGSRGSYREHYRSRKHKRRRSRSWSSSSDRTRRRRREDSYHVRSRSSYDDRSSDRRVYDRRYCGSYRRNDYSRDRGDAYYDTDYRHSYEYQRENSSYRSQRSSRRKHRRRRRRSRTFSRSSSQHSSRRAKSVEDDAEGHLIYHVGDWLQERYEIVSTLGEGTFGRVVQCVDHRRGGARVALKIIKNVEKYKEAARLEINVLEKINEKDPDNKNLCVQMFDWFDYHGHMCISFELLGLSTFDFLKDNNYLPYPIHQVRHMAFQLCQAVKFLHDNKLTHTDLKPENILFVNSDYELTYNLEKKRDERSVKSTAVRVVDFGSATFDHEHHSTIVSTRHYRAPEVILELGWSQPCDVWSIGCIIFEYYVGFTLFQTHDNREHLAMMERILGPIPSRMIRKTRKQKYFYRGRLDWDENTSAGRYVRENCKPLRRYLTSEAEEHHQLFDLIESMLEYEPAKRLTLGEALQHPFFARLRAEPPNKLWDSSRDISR

As to `Cc1ccncc1-c1ccc2[nH]nc(-c3cc4c(-c5ccncc5)ccnc4[nH]3)c2n1` [compound 376], the EC50 on CLK2 kinase is 0.011 µM; in test [1] it was 300 nM; in test [2], above 10 µM. In test [1], the Emax is 56.5%.
With `c1cc(-c2ccnc3[nH]c(-c4n[nH]c5ccc(-c6cncnc6)cc45)cc23)ccn1` [compound 405], the EC50 is 0.003 µM on CLK2 kinase and above 10 µM in test [2]. In addition, the Emax in test [1] stood at 17.3%.
For the compound `O=C(Cc1ccccc1)Nc1cncc(-c2ccc3[nH]nc(-c4nc5c(-c6ccncc6)ccnc5[nH]4)c3n2)c1` [compound 626], the figures for the EC50 (at CLK2 kinase; in test [2]) were 0.007 µM and above 10 µM, respectively.
For the compound `CN(C)c1cncc(-c2cnc3[nH]nc(-c4cc5c(-c6ccncc6)cncc5[nH]4)c3c2)c1` [compound 397], the values for the EC50 (at CLK2 kinase; in test [2]) were 0.003 µM and above 10 µM, respectively. Besides, the Emax in test [1] worked out at 191%.
As for `Nc1cncc(-c2cc3c(-c4cc5c(-c6ccncc6)cncc5[nH]4)n[nH]c3cn2)c1` [compound 381], the values for the EC50 (at CLK2 kinase; in test [1]; in test [2]) were 0.003 µM, 10 nM and above 10 µM, respectively. Also, the Emax in test [1] turned out to be 52%.
`O=C(CC1CCNCC1)Nc1cncc(-c2cnc3[nH]nc(-c4cc5c(-c6ccncc6)ccnc5[nH]4)c3c2)c1` [compound 393]: the values for the EC50 (on CLK2 kinase; in test [2]) were 0.006 µM and above 10 µM, respectively. In test [1], the Emax worked out at 26.7%.
Turning to `O=C(Nc1cncc(-c2cnc3[nH]nc(-c4cc5cccnc5[nH]4)c3c2)c1)c1ccccc1` [compound 436], the results for the EC50 (at CLK2 kinase; in test [2]) were 0.008 µM and above 10 µM, respectively. Also, the Emax in test [1] came out at 21.8%.
Take `CN(C)CCOc1cncc(-c2cc3c(-c4cc5c(-c6ccc(F)cc6)nccc5[nH]4)n[nH]c3cn2)c1` [compound 318]: the EC50 on CLK2 kinase is 0.019 µM; in test [1] it was 900 nM; in test [2], 3 µM. Besides, the Emax in test [1] stood at 113%.
On the same counts, the results for `CC(C)Nc1cncc(-c2cnc3[nH]nc(-c4cc5c(-c6ccccc6F)ccnc5[nH]4)c3c2)c1` [compound 333] are 0.02 µM, 10 nM, above 10 µM and 81.6%.
With `COc1cccc(-c2cncc3[nH]c(-c4n[nH]c5ccc(-c6cn[nH]c6)nc45)nc23)c1` [compound 633], the EC50 was 0.003 µM on CLK2 kinase and above 10 µM in test [2].
For the compound `COc1cncc(C#Cc2c[nH]nc2C(=O)Nc2ccc(N3CCNCC3)nc2)c1` [compound 29], the EC50 at CLK2 kinase was 0.025 µM; in test [2], above 10 µM. For the same compound, in test [1], the Emax stood at 74.7%.
On the same counts, the results for `c1cc(-c2ccnc3[nH]c(-c4n[nH]c5ccc(-c6cncc(OCCN7CCCC7)c6)nc45)cc23)ccn1` [compound 404] are 0.005 µM, above 10 µM and 39.6%.
Consider `Cc1n[nH]c2ccc(-c3cncc(NC4CCNC[C@@H]4F)n3)cc12` (stereo partly drawn) [compound 42], for which the Emax in test [1] was 25.6%. Moreover, in test [2], the EC50 came to 0.0843 µM.
With `CN1CCN(c2cc(C(=O)Nc3cc4cc(-c5cnn(C)c5)ccc4cn3)ccn2)CC1` [compound 545], the Emax in test [1] was 27.1%.
Turning to `Cc1n[nH]c2ccc(-c3cncc(OC4CCNC[C@H]4F)n3)cc12` (stereo partly drawn) [compound 45], in test [1], the EC50 is 30 nM and the Emax was found to be 54.2%. The EC50 in test [2] was 0.834 µM.
As for `Cc1n[nH]c2ccc(-c3cncc(OC4CCNCC4(F)F)n3)cc12` (stereo not drawn) [compound 47], in test [1], the EC50 came out at 300 nM and the Emax was determined as 82.1%. For the same compound, the EC50 in test [2] worked out at 0.227 µM.
As for `O=C(Nc1cc2cc(-c3cnco3)cnc2cn1)[C@H]1CC[C@H](CO)CC1` [compound 640], the EC50 was 7.43 µM at CLK2 kinase and above 10 µM in test [2].
On to `CN1CC2CCC(C1)N2C(=O)Nc1cc2cc(-c3cnn(C)c3)ccc2cn1` [compound 638], for which the EC50 at CLK2 kinase is 1.13 µM; in test [2], above 10 µM.
As for `Cc1n[nH]c2ccc(-c3cncc(OC4CCNC[C@@H]4F)n3)cc12` (stereo partly drawn) [compound 44], the EC50 in test [1] was found to be 100 nM; in test [2], 0.627 µM. In addition, in test [1], the Emax amounted to 44.9%.
